Experimental data published in US20250304540A1, “2-METHYL-2-THIAZOLINE SALT” (Myrodia Therapeutics Co., Ltd., priority 2022, published 2025).
Counter-ions that a name gives are not always drawn.

Tests used:
Assay type in all cases: physicochemical
[1] = Solubility in phosphate buffered saline by visual observation; conditions: aqueous buffer, thermodynamic from solid, phosphate buffered saline (PBS pH 7.2-7.4), room temperature
Experimental: When 2-MT-NDSA salt (20 mg) was added to phosphate buffered saline (PBS pH 7.2-7.4, FUJIFILM Wako Pure Chemical Corporation 164-18541, 1 mL) at room temperature, the salt was dissolved easily. The 2-MT-NDSA salt was further added by […] to the solution. By visual observation to confirm dissolution, undissolved remainder was confirmed when the total amount reached 200 mg. Thus, the solubility under the present conditions was 100 mg/mL to 200 mg/mL.

[2] = Humidity stress test with XRPD analysis; conditions: unsealed vial, 7 days
Experimental: XRPD analyses were performed using a Panalytical Empyrean diffractometer equipped with a Cu X-ray tube and a PIXcel 1D-Medipix3 detector system. The samples were analyzed at ambient temperature in transmission mode and held between low density PVC films. The XRPD program was used (range 3-40° […], step size 0.013°, counting time 99 sec, about 22 min run time/counting time 49 sec, about 11 min run time/counting time 22 sec, about 5 min run time). Samples were spun at 60 rpm during data collection. XRPD patterns were sorted and manipulated using HighScore Plus 2.2c/v4.9 software.
A given amount of salt was charged into a vial and placed unsealed in a thermostatic tank at 40° C./75% relative humidity or ambient temperature for 7 days and XRPD analysis was performed.

[3] = Stability in the solid state at 40° C., checked by 1H NMR; conditions: vial, heated to 40° C., left standing for three days
Experimental: 2-MT-NDSA salt was placed in a vial, heated to 40° C., and left standing for three days. […] Thus, it can be said that 2-MT·NDSA salt is stable in the solid state at 40° C. for 3 days (corresponding to 2 weeks at 25° C.).

[4] = Deliquescence by visual observation; conditions: relative humidity of about 75%, 25° C., 23 hr
Experimental: A petri dish containing 2-MT-NDSA salt was placed in a relative humidity of about 75%, and left standing in a thermostatic tank at 25° C. for 23 hr.

- solubility [1]: 100 to 200 mg/mL
- physical stability post storage (XRPD) ([2]; 40° C./75% relative humidity): physically stable
- physical stability post storage (XRPD) ([2]; ambient temperature): physically stable
- stability in the solid state (1H NMR before and after) [3]: no change in the peaks was observed
- deliquescence [4]: No deliquescence
SMILES: CC1=NCCS1 [2-MT-NDSA salt, monohydrate of a hemi-1,5-naphthalenedisulfonic acid salt of 2-methyl-2-thiazoline]
